“Also recorded” adds a separate entry of the source.
Experiments:
Format in all cases: cell-based
IKZF2 = IKZF2 (Homo sapiens, UniProt Q96SW2+Q9UKS7); assay: Prolabel quantification of IKZF2 protein levels in 293GT cells
GSPT1 = GSPT1 (Homo sapiens, UniProt P15170+Q96SW2); assay: Prolabel quantification of GSPT1 protein levels in 293GT cells; conditions: Prolabel assay, read-out: GSPT1 EC50
IKZF1 = IKZF1 (Homo sapiens, UniProt Q13422+Q96SW2); assay: Prolabel quantification of IKZF1 protein levels in 293GT cells; conditions: Prolabel assay, read-out: IKZF1 EC50
[1] = system: primary human regulatory T cells; assay: Expansion of purified primary human Treg cells in the presence of compound; conditions: FIG. 1
Description: (§1) Human buffy coats were obtained from BioreclamationIVT, in the USA. CD4+ T cells were isolated from said buffy coats using the RosetteSep Human CD4+ T cell enrichment Cocktail (Stemcell technologies, USA) and gradient centrifugation over Ficoll Paque Plus (GE HealthCare LifeSciences, USA) as per manufacturer's recommendations. Cells were resuspended in RPMI medium supplemented with 1% penicillin-Streptomycin solution, 10% Fetal Bovine Serum, HEPES (10 mM), MEM NEAA ([…]), sodium pyruvate (1 mM) (all supplements from Thermo Fisher Scientific, USA), thereafter referred to as complete RPMI (cRPMI), and rested overnight at 37° C., 5% CO2 in the presence of 2 U/mL rhIL-2 (Proleukin, Novartis). Cells were collected and resuspended in autoMACS Running Buffer supplemented with BSA (Miltenyi Biotec, USA) and labelled using CD4-FITC antibody (clone RPA-T4), CD25-APC antibody (clone M-A251) (Biolegend) and CD25 Microbeads (Miltenyi Biotec, USA). CD25-enriched cells were then isolated using the autoMACS Pro Separator. A highly purified population of Treg cells was then obtained by further sorting CD4+CD25Hi cells using a Sony SH800 cell sorter. The resulting Treg cell population was routinely above 90% pure according to FOXP3 expression. […]
Cell were collected and counted and the fold expansion was calculated as (number of cells recovered)/(number of cells plated). […]

[2] = system: primary human regulatory T cells; assay: In vitro suppression of the proliferation of CD4+ T cells by expanded Treg cells; conditions: five independent donors, vs DMSO, FIG. 3
Description: as §1, with “Separator.” for “Separator. A highly purified population of Treg cells was then obtained by further sorting CD4+CD25Hi cells using a Sony SH800 cell sorter. The resulting Treg cell population was routinely above 90% pure according to FOXP3 expression.”
Primary human PBMCs were obtained from freshly prepared buffy coats (BioReclamationIVT) using gradient centrifugation over Ficoll Paque Plus as per manufacturer's recommendations. […] Proliferation was assessed in each population as the proportion of cells having diluted CFSE. Suppression was assessed for each condition in comparison to the responders plated alone.

[3] = system: primary human regulatory T cells

Chain of IKZF2 (Q9UKS7 whole entry): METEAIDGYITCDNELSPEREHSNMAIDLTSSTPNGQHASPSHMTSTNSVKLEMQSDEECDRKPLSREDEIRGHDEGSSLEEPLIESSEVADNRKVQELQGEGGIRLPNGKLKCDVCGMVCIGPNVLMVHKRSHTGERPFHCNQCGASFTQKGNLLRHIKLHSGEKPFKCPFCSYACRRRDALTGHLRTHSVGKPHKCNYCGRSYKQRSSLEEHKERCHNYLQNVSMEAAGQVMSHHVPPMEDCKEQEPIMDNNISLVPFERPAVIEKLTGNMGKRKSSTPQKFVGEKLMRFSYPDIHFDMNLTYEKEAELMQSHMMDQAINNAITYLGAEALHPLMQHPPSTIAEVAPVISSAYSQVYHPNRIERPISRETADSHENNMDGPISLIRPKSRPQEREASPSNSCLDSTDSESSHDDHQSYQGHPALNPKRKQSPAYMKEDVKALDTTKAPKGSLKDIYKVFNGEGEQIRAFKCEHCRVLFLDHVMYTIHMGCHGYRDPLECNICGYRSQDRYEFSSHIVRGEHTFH
Chain of IKZF2 (Q96SW2 whole entry): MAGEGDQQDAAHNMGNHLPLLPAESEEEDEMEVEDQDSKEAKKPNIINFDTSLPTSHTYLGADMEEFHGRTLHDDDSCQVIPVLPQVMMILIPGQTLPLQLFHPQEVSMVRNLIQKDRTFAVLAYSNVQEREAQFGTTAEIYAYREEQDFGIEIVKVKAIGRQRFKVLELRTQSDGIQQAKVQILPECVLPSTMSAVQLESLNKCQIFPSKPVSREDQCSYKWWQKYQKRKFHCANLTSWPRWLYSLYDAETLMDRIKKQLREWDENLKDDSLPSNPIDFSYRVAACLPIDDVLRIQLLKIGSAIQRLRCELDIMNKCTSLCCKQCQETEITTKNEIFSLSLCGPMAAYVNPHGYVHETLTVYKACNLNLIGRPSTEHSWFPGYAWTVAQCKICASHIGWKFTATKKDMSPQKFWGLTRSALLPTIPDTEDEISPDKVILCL
Chain of IKZF2 (Q16531 whole entry partner): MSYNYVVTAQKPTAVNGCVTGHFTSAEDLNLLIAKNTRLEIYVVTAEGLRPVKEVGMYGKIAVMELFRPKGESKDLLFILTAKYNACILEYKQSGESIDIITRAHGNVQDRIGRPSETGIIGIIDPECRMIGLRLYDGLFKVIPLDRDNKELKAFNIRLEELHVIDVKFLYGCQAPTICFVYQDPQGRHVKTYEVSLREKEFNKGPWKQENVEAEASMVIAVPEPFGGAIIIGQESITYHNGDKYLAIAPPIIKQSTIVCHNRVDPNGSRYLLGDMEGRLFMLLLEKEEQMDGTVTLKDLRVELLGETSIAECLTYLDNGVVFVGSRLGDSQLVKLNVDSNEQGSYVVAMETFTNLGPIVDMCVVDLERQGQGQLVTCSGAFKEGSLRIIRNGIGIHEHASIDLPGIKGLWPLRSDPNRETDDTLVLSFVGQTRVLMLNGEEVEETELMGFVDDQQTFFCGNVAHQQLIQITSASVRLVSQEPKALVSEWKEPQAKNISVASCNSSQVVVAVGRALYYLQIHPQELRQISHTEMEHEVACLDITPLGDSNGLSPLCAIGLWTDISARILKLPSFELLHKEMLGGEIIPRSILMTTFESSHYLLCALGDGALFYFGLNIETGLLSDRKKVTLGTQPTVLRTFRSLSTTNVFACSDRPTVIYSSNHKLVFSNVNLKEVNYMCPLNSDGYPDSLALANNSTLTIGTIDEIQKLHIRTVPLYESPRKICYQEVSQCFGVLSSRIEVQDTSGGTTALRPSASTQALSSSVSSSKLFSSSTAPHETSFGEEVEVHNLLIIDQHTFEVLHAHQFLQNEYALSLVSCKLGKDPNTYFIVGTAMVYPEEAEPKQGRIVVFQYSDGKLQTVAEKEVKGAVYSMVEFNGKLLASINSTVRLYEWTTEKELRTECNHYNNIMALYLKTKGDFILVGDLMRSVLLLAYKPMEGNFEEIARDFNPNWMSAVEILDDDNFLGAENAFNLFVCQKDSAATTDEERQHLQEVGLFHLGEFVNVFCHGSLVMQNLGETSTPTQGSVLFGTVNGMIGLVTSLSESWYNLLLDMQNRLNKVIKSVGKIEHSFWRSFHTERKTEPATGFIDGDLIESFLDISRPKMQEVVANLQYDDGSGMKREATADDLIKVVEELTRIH
Chain of GSPT1 (P15170 whole entry): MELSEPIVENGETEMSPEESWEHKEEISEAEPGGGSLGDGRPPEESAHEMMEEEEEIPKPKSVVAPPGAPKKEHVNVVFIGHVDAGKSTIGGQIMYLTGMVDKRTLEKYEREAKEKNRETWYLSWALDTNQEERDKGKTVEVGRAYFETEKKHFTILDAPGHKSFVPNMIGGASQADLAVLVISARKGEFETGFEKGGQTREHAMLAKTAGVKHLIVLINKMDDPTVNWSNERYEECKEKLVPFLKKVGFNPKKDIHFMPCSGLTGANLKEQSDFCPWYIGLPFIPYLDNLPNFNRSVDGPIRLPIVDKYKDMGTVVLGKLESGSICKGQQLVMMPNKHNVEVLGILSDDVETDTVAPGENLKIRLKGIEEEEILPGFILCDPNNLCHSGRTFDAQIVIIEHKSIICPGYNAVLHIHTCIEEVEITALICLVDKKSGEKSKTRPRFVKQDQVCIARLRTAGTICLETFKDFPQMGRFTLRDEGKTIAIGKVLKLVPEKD
Chain of GSPT1 (Q96SW2 whole entry): as the sequence (Q96SW2 whole entry) above
Chain of GSPT1 (Q16531 whole entry partner): as the sequence (Q16531 whole entry partner) above
Chain of IKZF1 (Q13422 whole entry): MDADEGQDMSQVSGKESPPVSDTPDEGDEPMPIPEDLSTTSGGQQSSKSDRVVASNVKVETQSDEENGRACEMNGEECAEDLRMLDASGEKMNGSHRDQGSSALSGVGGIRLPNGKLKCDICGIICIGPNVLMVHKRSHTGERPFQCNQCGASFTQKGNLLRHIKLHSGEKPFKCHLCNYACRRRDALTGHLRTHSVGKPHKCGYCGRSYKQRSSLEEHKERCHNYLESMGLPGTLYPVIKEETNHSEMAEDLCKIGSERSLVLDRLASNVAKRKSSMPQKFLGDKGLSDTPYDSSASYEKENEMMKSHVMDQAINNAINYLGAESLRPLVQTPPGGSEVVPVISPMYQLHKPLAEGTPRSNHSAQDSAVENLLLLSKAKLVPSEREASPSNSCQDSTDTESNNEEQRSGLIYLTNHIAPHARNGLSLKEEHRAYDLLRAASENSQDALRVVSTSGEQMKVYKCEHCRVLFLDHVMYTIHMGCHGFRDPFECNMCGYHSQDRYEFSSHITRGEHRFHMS
Chain of IKZF1 (Q96SW2 whole entry): as the sequence (Q96SW2 whole entry) above
Chain of IKZF1 (Q16531 whole entry partner): as the sequence (Q16531 whole entry partner) above

## O=C1CCC(N2Cc3cc(C4CCN(Cc5ccccc5)CC4)ccc3C2=O)C(=O)N1 (stereo not drawn) [Compound I-57, 3-(5-(1-benzylpiperidin-4-yl)-1-oxoisoindolin-2-yl)piperidine-2,6-dione]
IKZF2
  IKZF2 protein levels as compared to the control (DMSO): decreased
IKZF2; 24 h, read-out: IKZF2 % protein reduction at 10 μM, 24 h
  inhibition at 10 µM: 70%
IKZF2; Prolabel assay, 293GT cells, read-out: IKZF2 EC50
  DC50: 0.009 µM
GSPT1
  DC50: > 50 µM
IKZF1
  DC50: > 50 µM
[1]; expanded in vitro 12 days, vs DMSO, compound 10 μM
  Treg cells expand less in the presence of compound: 30%
[1]; purified primary human Treg cells, DMSO control
  Expansion of purified Treg cells as compared to the control: impaired
[2]
  In vitro suppression of the proliferation of CD4+ T cells by expanded Treg cells: impaired; also recorded: less able to repress
[3]
  Increase of the proportion of cells producing IL-2 (median): 2.16 fold

Source: US11053218B2, “3-(1-oxoisoindolin-2-yl)piperidine-2,6-dione derivatives and uses thereof” (Novartis AG, priority 2017, dated 2021)
